In assay [1] the target is T1, Recombinant ROCK2 (amino acids 5-554) (Homo sapiens, UniProt O75116).
T1 construct: ROCK2 (amino acids 5-554)
Nature of the assay: ROCK inhibition assay, LANCE Ultra TR-FRET (ROCK2). The format is biochemical. The following applies: 1 mM of ATP. The protocol:
(§1) Kinase IC50 was determined through an in vitro assay based on LANCE Ultra TR-FRET (Time-Resolved Fluorescence Resonance Energy Transfer) homogeneous technologies method 5 (Perkin Elmer). Recombinant ROCK1 (amino acids 1-477) and ROCK2 (amino acids 5-554) proteins were purchased from Carna Biosciences and SignalChem. Compound activities were measured by Envision and IC50s were calculated. The assays were performed in white LUMITRAC™ 200 96 well half-area microplates from Greiner Bio-One. The kinase reaction buffer consisted of 50 mM HEPES pH 7.5, 1 mM EGTA, 10 mM MgCl2, 2 mM DTT and 0.01% 10 Tween-20. Kinases were incubated with 50 nM (ULight-CREBtide) substrate in the presence of 1 mM (ROCK1) or 1 mM (ROCK2) of ATP. The kinase reaction was carried out for 1 hour before addition of a stopping buffer to a final of 10 mM EDTA and 0.6 nM of LANCE Ultra Europium anti-phospho-CREB (Ser133) antibody (PerkinElmer TRF0200) in LANCE detection buffer. All assay incubations were performed at room temperature, and the microplates were sealed with polyester film during that time. The reaction was incubated for 1 hour, and the signal was read in Envision in TR-FRET mode (excitation at 320 nm and emission at 615/665 nm).
(§2) As used herein, a way to describe potency of inhibitory activity (nM) is a value of inhibitory activity at 50% (IC50).

The target of assay [2] is T2, Recombinant ROCK1 (amino acids 1-477) (Homo sapiens, UniProt Q13464).
T2 construct: Recombinant ROCK1 (amino acids 1-477)
T2 sequence (Q13464 1-477): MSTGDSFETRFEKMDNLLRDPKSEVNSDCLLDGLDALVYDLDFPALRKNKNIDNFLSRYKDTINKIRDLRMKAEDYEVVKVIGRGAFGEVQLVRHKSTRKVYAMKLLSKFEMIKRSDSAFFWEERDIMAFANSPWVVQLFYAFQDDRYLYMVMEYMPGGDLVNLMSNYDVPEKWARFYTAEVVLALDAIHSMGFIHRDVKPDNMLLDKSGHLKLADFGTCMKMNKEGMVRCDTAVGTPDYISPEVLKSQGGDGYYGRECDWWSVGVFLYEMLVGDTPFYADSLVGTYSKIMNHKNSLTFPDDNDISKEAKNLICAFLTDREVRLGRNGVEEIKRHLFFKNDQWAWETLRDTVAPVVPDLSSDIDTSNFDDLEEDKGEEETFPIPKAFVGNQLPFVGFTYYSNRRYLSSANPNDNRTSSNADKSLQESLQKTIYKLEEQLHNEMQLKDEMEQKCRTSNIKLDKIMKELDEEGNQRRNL
Nature of the assay: ROCK inhibition assay, LANCE Ultra TR-FRET (ROCK1). The format is biochemical. The following applies: 1 mM of ATP. The procedure:
as §1, §2
(In general: TR-FRET usually uses a lanthanide donor and a delayed reading to cut background.)

T1 sequence (O75116 5-554): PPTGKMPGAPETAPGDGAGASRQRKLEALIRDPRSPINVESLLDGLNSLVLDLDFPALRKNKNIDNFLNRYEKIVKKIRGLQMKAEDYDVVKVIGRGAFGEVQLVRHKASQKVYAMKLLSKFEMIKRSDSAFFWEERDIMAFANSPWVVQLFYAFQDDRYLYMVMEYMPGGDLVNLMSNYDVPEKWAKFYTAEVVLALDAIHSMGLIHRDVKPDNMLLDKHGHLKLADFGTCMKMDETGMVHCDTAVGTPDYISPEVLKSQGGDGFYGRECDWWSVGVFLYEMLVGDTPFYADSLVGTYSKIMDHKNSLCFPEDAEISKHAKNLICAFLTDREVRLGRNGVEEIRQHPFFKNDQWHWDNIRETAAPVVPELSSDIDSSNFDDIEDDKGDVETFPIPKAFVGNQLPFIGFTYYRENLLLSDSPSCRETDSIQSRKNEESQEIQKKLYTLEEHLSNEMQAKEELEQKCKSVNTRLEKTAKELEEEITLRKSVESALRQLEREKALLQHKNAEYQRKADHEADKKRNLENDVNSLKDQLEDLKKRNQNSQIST

As a reminder, the IC50 is the point on the concentration scale where inhibition reaches its midpoint. Turning to `COc1ccc2c(c1)CC(C(=O)c1cn(C[C@@H]3CCN3C)c3cc(-c4cn[nH]c4OC)ccc13)CO2` (some centres unmarked) [Compound 1-47], the values for the half-maximal inhibitory concentration (IC50) in assay [1] and in assay [2] were < 20 nM and > 501 nM, respectively.

Take `COc1ccc2c(c1)CC(C(=O)c1cn(C[C@@H]3CCN3C)c3cc(-c4cn[nH]c4F)ccc13)CO2` (some centres unmarked) [Compound 1-48]: the figures for the half-maximal inhibitory concentration (IC50) in assay [1] and in assay [2] were 21 to 200 nM and > 501 nM, respectively.

With `COc1ccc2c(c1)CC(C(=O)c1cn(C[C@H]3CCN3C)c3cc(-c4cn[nH]c4OC)ccc13)CO2` (some centres unmarked) [Compound 1-49], the results for the IC50 in assay [1] and in assay [2] were 21 to 200 nM and > 501 nM, respectively.

With `COc1ccc2c(c1)CC(C(=O)c1cn(C[C@H]3CCN3C)c3cc(-c4cn[nH]c4Cl)ccc13)CO2` (some centres unmarked) [Compound 1-50], the values for the IC50 in assay [1] and in assay [2] were < 20 nM and > 501 nM, respectively.

For `COc1ccc2c(c1)C[C@H](C(=O)c1cn(C[C@H]3CCN3C)c3cc(-c4cn[nH]c4Cl)ccc13)CO2` [Compound 1-51], the IC50 was < 20 nM in assay [1] and > 501 nM in assay [2].

Regarding `CCN1CC[C@@H]1Cn1cc(C(=O)C2COc3ccc(OC)cc3C2)c2ccc(-c3cn[nH]c3OC)cc21` (some centres unmarked) [Compound 1-56], the IC50 in assay [1] was 21 to 200 nM; in assay [2] it was > 501 nM.

For the molecule `CN1CC[C@@H]1Cn1cc(C(=O)C2COc3ccc(Cl)cc3C2)c2ccc(-c3cn[nH]c3F)cc21` (some centres unmarked) [Compound 1-57], the IC50 in assay [1] was 201 to 500 nM; in assay [2], > 501 nM.

Take `CCN1CC[C@@H]1Cn1cc(C(=O)C2COc3ccc(OC)cc3C2)c2ccc(-c3cn[nH]c3Cl)cc21` (some centres unmarked) [Compound 1-58]: the half-maximal inhibitory concentration (IC50) was 21 to 200 nM in assay [1] and > 501 nM in assay [2].

In the case of `CCN1CC[C@@H]1Cn1cc(C(=O)[C@@H]2COc3ccc(OC)cc3C2)c2ccc(-c3cn[nH]c3Cl)cc21` [Compound 1-59], the IC50 in assay [1] was < 20 nM; in assay [2], > 501 nM.

In the case of `NCCn1cc(C(=O)C2COc3ccc(Cl)cc3C2)c2cnc(-c3c[nH]nc3Cl)cc21` (centres unmarked) [Compound 2-1, [1-(2-aminoethyl)-6-(3-chloro-1H-pyrazol-4-yl)pyrrolo[3,2-c]pyridin-3-yl]-(6-chlorochroman-3-yl) methanone], the results for the half-inhibitory concentration (IC50) in assay [1] and in assay [2] were < 20 nM and 21 to 200 nM, respectively.

For the molecule `CC(N)Cn1cc(C(=O)C2COc3ccc(F)cc3C2)c2cnc(-c3c[nH]nc3Cl)cc21` (centres unmarked) [Compound 2-2], the IC50 is < 20 nM in assay [1] and 21 to 200 nM in assay [2].

On to `NCCn1cc(C(=O)C2COc3ccc(F)cc3C2)c2cnc(-c3c[nH]nc3Cl)cc21` (centres unmarked) [Compound 2-3], for which the half-maximal inhibitory concentration (IC50) was < 20 nM in assay [1] and 21 to 200 nM in assay [2].

On to `NCCn1cc(C(=O)C2COc3ccc(F)cc3C2)c2ccc(-c3c[nH]nc3Cl)cc21` (centres unmarked) [Compound 2-4], for which the 50% inhibitory concentration (IC50) in assay [1] and in assay [2] was < 20 nM in each case.

Consider `C[C@@H](N)Cn1cc(C(=O)C2COc3ccc(Cl)cc3C2)c2ccc(-c3c[nH]nc3Cl)cc21` (some centres unmarked) [Compound 2-5], for which the half-inhibitory concentration (IC50) in assay [1] is < 20 nM; in assay [2] it was 21 to 200 nM.

Turning to `COc1n[nH]cc1-c1ccc2c(C(=O)C3COc4ccc(Cl)cc4C3)cn(C[C@@H](C)N)c2c1` (some centres unmarked) [Compound 2-6], the 50% inhibitory concentration (IC50) in assay [1] is < 20 nM; in assay [2], 21 to 200 nM.

`C[C@H](N)Cn1cc(C(=O)C2COc3ccc(Cl)cc3C2)c2ccc(-c3c[nH]nc3Cl)cc21` (some centres unmarked) [Compound 2-7]: the IC50 in assay [1] and in assay [2] was < 20 nM each time.

In the case of `C[C@H](N)Cn1cc(C(=O)C2COc3ccc(Cl)cc3C2)c2ccc(-c3cn[nH]c3F)cc21` (some centres unmarked) [Compound 2-8], the half-inhibitory concentration (IC50) in assay [1] and in assay [2] was > 501 nM in each case.

For `COc1n[nH]cc1-c1ccc2c(C(=O)C3COc4ccc(Cl)cc4C3)cn(C[C@H](C)N)c2c1` (some centres unmarked) [Compound 2-9], the IC50 is < 20 nM in assay [1] and 201 to 500 nM in assay [2].

Take `C[C@@H](Cn1cc(C(=O)C2COc3ccc(Cl)cc3C2)c2ccc(-c3cn[nH]c3Cl)cc21)N(C)C` (stereo partly drawn) [Compound 2-12, (6-chlorochroman-3-yl)-[6-(5-chloro-1H-pyrazol-4-yl)-1-[(2S)-2-(dimethylamino)propyl]indol-3-yl]methanone]: the 50% inhibitory concentration (IC50) is < 20 nM in assay [1] and > 501 nM in assay [2].

Consider `CN(C)C1(Cn2cc(C(=O)C3COc4ccc(Cl)cc4C3)c3ccc(-c4cn[nH]c4Cl)cc32)CC1` (centres unmarked) [Compound 2-13], for which the 50% inhibitory concentration (IC50) in assay [1] and in assay [2] was 21 to 200 nM each time.

For `COc1[nH]ncc1-c1ccc2c(C(=O)C3COc4ccc(Cl)cc4C3)cn(C[C@@H](C)N(C)C)c2c1` (some centres unmarked) [Compound 2-14], the concentration for half-maximal inhibition (IC50) in assay [1] is < 20 nM; in assay [2] it was 201 to 500 nM.

With `C[C@H](Cn1cc(C(=O)C2COc3ccc(Cl)cc3C2)c2ccc(-c3cn[nH]c3Cl)cc21)N(C)C` (some centres unmarked) [Compound 2-15], the IC50 was < 20 nM in assay [1] and 201 to 500 nM in assay [2].

Turning to `C[C@H](Cn1cc(C(=O)C2COc3ccc(Cl)cc3C2)c2ccc(-c3cn[nH]c3F)cc21)N(C)C` (some centres unmarked) [Compound 2-16], the IC50 in assay [1] was < 20 nM; in assay [2] it was > 501 nM.

Turning to `C[C@H](Cn1cc(C(=O)[C@@H]2COc3ccc(Cl)cc3C2)c2ccc(-c3cn[nH]c3F)cc21)N(C)C` [Compound 2-17], the IC50 in assay [1] is < 20 nM; in assay [2] it was 201 to 500 nM.

With `O=C(c1cn(CCN2CCC2)c2nc(-c3c[nH]nc3Cl)ccc12)C1COc2ccc(F)cc2C1` (centres unmarked) [Compound 3-1, [1-[2-(azetidin-1-yl)ethyl]-6-(3-chloro-1H-pyrazol-4-yl)pyrrolo[2,3-b]pyridin-3-yl]-(6-fluorochroman-3-yl)methanone], the values for the IC50 in assay [1] and in assay [2] were < 20 nM and > 501 nM, respectively.

For `CNCCn1cc(C(=O)C2COc3ccc(F)cc3C2)c2cnc(-c3c[nH]nc3Cl)cc21` (centres unmarked) [Compound 3-2], the concentration for half-maximal inhibition (IC50) is 21 to 200 nM in assay [1] and > 501 nM in assay [2].

With `CNCCn1cc(C(=O)C2COc3ccc(F)cc3C2)c2ccc(-c3c[nH]nc3Cl)nc21` (centres unmarked) [Compound 3-3], the 50% inhibitory concentration (IC50) in assay [1] is 21 to 200 nM; in assay [2], > 501 nM.

Regarding `COc1n[nH]cc1-c1ccc2c(C(=O)C3COc4ccc(Cl)cc4C3)cn(CCN3CCC3)c2c1` (centres unmarked) [Compound 3-4, [1-[2-(azetidin-1-yl)ethyl]-6-(3-methoxy-1H-pyrazol-4-yl)indol-3-yl]-(6-chlorochroman-3-yl)methanone], the figures for the 50% inhibitory concentration (IC50) in assay [1] and in assay [2] were 201 to 500 nM and > 501 nM, respectively.

Turning to `CNCCn1cc(C(=O)C2COc3ccc(F)cc3C2)c2ccc(-c3c[nH]nc3Cl)cc21` (centres unmarked) [Compound 3-5], the IC50 in assay [1] is < 20 nM; in assay [2] it was 201 to 500 nM.

For `COc1n[nH]cc1-c1ccc2c(C(=O)C3COc4ccc(F)cc4C3)cn(CCCN(C)C)c2c1` (centres unmarked) [Compound 3-6], the half-maximal inhibitory concentration (IC50) is 21 to 200 nM in assay [1] and > 501 nM in assay [2].

As for `COc1n[nH]cc1-c1ccc2c(C(=O)[C@@H]3COc4ccc(Cl)cc4C3)cn(CCCN(C)C)c2c1` [Compound 3-7], the IC50 in assay [1] was 21 to 200 nM; in assay [2], 201 to 500 nM.

On to `COc1n[nH]cc1-c1ccc2c(C(=O)[C@H]3COc4ccc(Cl)cc4C3)cn(CCCN(C)C)c2c1` [Compound 3-8], for which the 50% inhibitory concentration (IC50) in assay [1] is 201 to 500 nM; in assay [2] it was > 501 nM.

With `CNCCn1cc(C(=O)C2COc3ccc(Cl)cc3C2)c2ccc(-c3cn[nH]c3Cl)cc21` (centres unmarked) [Compound 3-9], the IC50 is 201 to 500 nM in assay [1] and > 501 nM in assay [2].

Take `CCN(C)CCn1cc(C(=O)C2COc3ccc(Cl)cc3C2)c2ccc(-c3cn[nH]c3Cl)cc21` (centres unmarked) [Compound 3-10]: the IC50 in assay [1] is 21 to 200 nM; in assay [2], > 501 nM.

With `CCN(C)CCn1cc(C(=O)C2COc3ccc(Cl)cc3C2)c2ccc(-c3cn[nH]c3OC)cc21` (centres unmarked) [Compound 3-11], the IC50 is 21 to 200 nM in assay [1] and > 501 nM in assay [2].

For `CCN(CC)CCn1cc(C(=O)C2COc3ccc(Cl)cc3C2)c2ccc(-c3cn[nH]c3Cl)cc21` (centres unmarked) [Compound 3-12], the IC50 is 21 to 200 nM in assay [1] and > 501 nM in assay [2].

In the case of `CCN(CC)CCn1cc(C(=O)C2COc3ccc(Cl)cc3C2)c2ccc(-c3cn[nH]c3OC)cc21` (centres unmarked) [Compound 3-13], the IC50 in assay [1] was < 20 nM; in assay [2], > 501 nM.

As to `CCN(CC)CCn1cc(C(=O)[C@@H]2COc3ccc(Cl)cc3C2)c2ccc(-c3cn[nH]c3OC)cc21` [Compound 3-14], the IC50 in assay [1] was < 20 nM; in assay [2], > 501 nM.

Regarding `CCN(CC)CCn1cc(C(=O)[C@@H]2COc3ccc(OC)cc3C2)c2ccc(-c3cn[nH]c3Cl)cc21` [Compound 3-20], the figures for the IC50 in assay [1] and in assay [2] were < 20 nM and 201 to 500 nM, respectively.

In the case of `CCN(CC)CCn1cc(C(=O)[C@@H]2COc3ccc(OC)cc3C2)c2ccc(-c3cn[nH]c3Cl)cc21` [Compound 3-21], the IC50 in assay [1] was 21 to 200 nM; in assay [2], 201 to 500 nM.

In the case of `CCN(CC)CCn1cc(C(=O)C2COc3ccc(OC)cc3C2)c2ccc(-c3cn[nH]c3F)cc21` (centres unmarked) [Compound 3-22], the concentration for half-maximal inhibition (IC50) in assay [1] is < 20 nM; in assay [2] it was 201 to 500 nM.

`CNCCn1cc(C(=O)C2COc3ccc(OC)cc3C2)c2ccc(-c3cn[nH]c3Cl)cc21` (centres unmarked) [Compound 3-23]: the half-inhibitory concentration (IC50) in assay [1] is < 20 nM; in assay [2], > 501 nM.

As for `CCN(C)CCn1cc(C(=O)C2COc3ccc(OC)cc3C2)c2ccc(-c3cn[nH]c3Cl)cc21` (centres unmarked) [Compound 3-25], the IC50 in assay [1] was < 20 nM; in assay [2], 201 to 500 nM.

The record behind these values is US20240360139A1, “BLOOD BRAIN BARRIER PENETRATING SELECTIVE INHIBITORS OF ROCK2 PROTEIN KINASES AND USES THEREOF” (GENOSCO Inc., priority 2023, published 2024).
